The values that follow come from patent US8071810B2, “C5a receptor antagonists” (Jerini AG, priority 2005, dated 2011).

In one experiment the target is T1, human C5a receptor (CD88) (Homo sapiens, UniProt P21730).
T1 construct: expressed in transfected cells; host or cells: rat basophilic leukemia (RBL) cells, stably transfected
T1 sequence (P21730 1-350): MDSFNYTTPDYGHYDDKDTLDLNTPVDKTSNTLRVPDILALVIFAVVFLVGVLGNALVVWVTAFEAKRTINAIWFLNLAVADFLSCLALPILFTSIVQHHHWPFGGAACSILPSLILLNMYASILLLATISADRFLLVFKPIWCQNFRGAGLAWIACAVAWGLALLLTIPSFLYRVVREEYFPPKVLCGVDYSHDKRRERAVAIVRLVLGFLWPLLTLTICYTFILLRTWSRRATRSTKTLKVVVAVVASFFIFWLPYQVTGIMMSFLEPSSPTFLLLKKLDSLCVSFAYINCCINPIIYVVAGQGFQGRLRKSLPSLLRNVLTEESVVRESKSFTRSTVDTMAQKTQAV
As to the kind of experiment: C5a induced enzyme (glucosaminidase) release assay in RBL cells expressing the human C5a receptor (Example 28). As to conditions: RBL cells with human C5aR; read-out: IC50 for the inhibition of C5a induced enzyme release. It is filed as cell-based. The protocol: Basophile leukemia cells from rats (RBL), which express the human C5a receptor (CD88), are cultivated in DMEM with 10% fetal calf serum, 100 U/ml penicillin, 100 μg/ml streptomycin and 2 mM glutamin (all constituents are from Biochrome, Berlin) at 37° C. and with 10% CO2 until a confluent layer is obtained. All following details refer to a tissue culture flask with 75 cm^2 surface. The used up medium is removed. The cells are washed with 10 ml PBS (Dulbecco's PBS, Biochrome) and then covered with 3 ml cell dissociation solution (CDS, Sigma). The cells are incubated for 1 minute at room temperature. Then the CDS is removed and the cells are incubated for further 10-15 minutes at 37° C. to detach the cells completely from the flask. 20 μl solution of the compound to be testet are used in the assay. […] The dilution series are prepared in ⅓ or ½ steps. […] The cells are counted and centrifuged (200 g, 10 min). The cell pellet is taken up with pre-heated HAG-CM, and the cell density is adjusted to 2×10^6 Zellen/ml. The cells are incubated for 5 minutes at 37° C. 2.7 μl of a cytochalasin B solution (1000 μg/ml in DMSO, Sigma) are added per ml cell suspension. The Zellen are incubated for another 3 min at 37° C. Then, 75 μl of the cell suspension are added to the 20 μl solution containing the compounds to be tested. […] The cells are again incubated for 10 minutes at 37° C. […] After this the plates are put on ice and centrifuged for 3 minutes at 1200×g and 4° C. […] The plate is incubated for 1 hour at 37° C. […] The IC50 value is determined by solving the four parameter equation y=((A−D)/(1+(x/C)^B))+D.
Turning to `CCc1c(N)cc(Cl)c(CC)c1NC(=O)N(c1ccc(C(C)C)cc1)[C@@H](C)c1ccc(OC)cc1` [compound 66, (S)-3-(3-amino-5-chloro-2,6-diethyl-phenyl)-1-(4-isopropyl-phenyl)-1-[1-(4-methoxy-phenyl)-ethyl]-urea], the 50% inhibitory concentration (IC50) (in general, the concentration needed to halve the response being measured) came to 55 nM. In the case of `CCc1c(N)cc(Cl)c(CC)c1NC(=O)N(c1ccc(C(C)C)cc1)[C@@H](C)c1ccc(F)cc1` [(S)-3-(3-Amino-5-chlor-2,6-diethyl-phenyl)-1-[1-(4-fluor-phe], the half-inhibitory concentration (IC50) is 38 nM.

In the case of `CCc1c(N)cc(Cl)c(CC)c1NC(=O)N(c1ccc(OC)cc1F)[C@@H](C)c1ccc(Cl)cc1`, the half-maximal inhibitory concentration (IC50) was 31 nM. Turning to `CCc1c(N)cc(Cl)c(CC)c1NC(=O)N(c1ccc(C(C)C)cc1)[C@H](C)c1ccc(OC)cc1` [compound 56, (R)-3-(3-amino-5-chloro-2,6-diethyl-phenyl)-1-(4-isopropyl-phenyl)-1-[1-(4-methoxy-phenyl)ethyl]-urea], the IC50 worked out at 619 nM. As for `Cc1ccc(CN(Cc2ccccc2)C(=O)c2ccccc2-n2cccc2)cc1` [Compound 8, N-Benzyl-N-(4-methyl-benzyl)-2-pyrrol-1-yl-benzamide, reference compound], the IC50 was determined as 1920 nM.

The same experiment, now with this note: inhibition of C5a induced enzyme release, RBL cells with human C5aR; read-out: Activity-range (antagonistic activity, IC50 enzyme release).
In the case of `CCc1ccc(N(C(=O)Nc2c(CC)c(N)cc(Cl)c2CC)[C@@H](C)c2ccc(F)cc2)cc1` [compound 82, (S)-3-(3-amino-5-chloro-2,6-diethyl-phenyl)-1-(4-ethyl-phenyl)-1-[1-(4-fluoro-phenyl)-ethyl]-urea], the IC50 fell in the range of 60 to 200 nM. Take `COc1ccc(CN(C(=O)Nc2c(C(C)C)cccc2C(C)C)c2ccc(C(C)C)cc2)cc1` [compound 134, 3-(2,6-diisopropyl-phenyl)-1-(4-isopropyl-phenyl)-1-(4-methoxy-benzyl)-urea]: the IC50 lay in the range of 200 to 5000 nM. In the case of `CCc1c(N)cc(Cl)c(CC)c1NC(=O)N(Cc1ccccc1)c1ccc(N(C)C)cc1` [compound 128, 3-(3-amino-5-chloro-2,6-diethyl-phenyl)-1-benzyl-1-(4-dimethylamino-phenyl)-urea], the half-inhibitory concentration (IC50) lay within 200 to 5000 nM. On the same count and under the same terms, the same measure for `CCc1c(N)cc(Cl)c(CC)c1NC(=O)N(c1ccc(OC)c(F)c1)[C@@H](C)c1ccc(Cl)cc1` [compound 94, (S)-3-(3-amino-5-chloro-2,6-diethyl-phenyl)-1-[1-(4-chloro-phenyl)-ethyl]-1-(3-fluoro-4-methoxy-phenyl)-urea]: less than 60 nM; for `CCc1c(N)cc(Cl)c(CC)c1NC(=O)N(Cc1ccc(Cl)cn1)c1ccc(C(C)C)cc1` [compound 105, 3-(3-amino-5-chloro-2,6-diethyl-phenyl)-1-(5-chloro-pyridin-2-ylmethyl)-1-(4-isopropyl-phenyl)-urea]: 200 to 5000 nM.

On to `COc1ccc(CN(C(=O)Nc2c(C(C)C)ccc(N)c2C(C)C)c2ccc(C(C)C)cc2)cc1` [compound 25, 3-(3-Amino-2,6-diisopropyl-phenyl)-1-(4-isopropyl-phenyl)-1-(4-methoxy-benzyl)-urea], for which the IC50 fell in the range of 200 to 5000 nM. On to `C#Cc1ccc(N(Cc2ccc(OC)cc2)C(=O)Nc2c(CC)c(N)cc(Cl)c2CC)cc1` [compound 85, 3-(3-amino-5-chloro-2,6-diethyl-phenyl)-1-(4-ethynyl-phenyl)-1-(4-methoxy-benzyl)-urea], for which the IC50 was 200 to 5000 nM. With `CCc1ccc(N(Cc2cnc(N(C)C)nc2)C(=O)Nc2c(CC)c(N)cc(Cl)c2CC)cc1` [compound 121, 3-(3-amino-5-chloro-2,6-diethyl-phenyl)-1-(2-dimethylamino-pyrimidin-e5-ylmethyl)-1-(4-ethyl-phenyl)-urea], the half-maximal inhibitory concentration (IC50) lay within 200 to 5000 nM. On to `CCc1ccc(N)c(CC)c1NC(=O)N(c1ccc(C(C)C)cc1)[C@H](C)c1ccc(OC)cc1` [compound 70, (R)-3-(3-amino-2,6-diethyl-phenyl)-1-(4-isopropyl-phenyl)-1-[1-(4-methoxy-phenyl)-ethyl]-urea], for which the concentration for half-maximal inhibition (IC50) fell in the range of 200 to 5000 nM. Still for that read-out and setting: the same measure for `CCc1ccc(N)c(CC)c1NC(=O)N(c1ccc(C(C)C)cc1)[C@@H](C)c1ccc(C)cc1` [compound 69, (S)-3-(3-amino-2,6-diethyl-phenyl)-1-(4-isopropyl-phenyl)-1-(1-p-tolyl-ethyl)-urea]: 60 to 200 nM; for `CCc1c(N)cc(Cl)c(CC)c1NC(=O)N(Cc1ccc(S(C)(=O)=O)cc1)c1ccc(C(C)C)cc1` [compound 64, 3-(3-amino-5-chloro-2,6-diethyl-phenyl)-1-(4-isopropyl-phenyl)-1-(4-methansulfonyl-benzyl)-urea]: 200 to 5000 nM; for `CCc1c(Cl)cc(NCc2ccco2)c(CC)c1NC(=O)N(Cc1ccc(OC)cc1)c1ccc(C(C)C)cc1` [compound 36, 3-{3-Chloro-2,6-diethyl-5-[(furan-2-ylmethyl)-amino]-phenyl}-1-(4-isopropyl-phenyl)-1-(4-methoxy-benzyl)-urea]: 200 to 5000 nM. With `CCc1c(N)cc(Cl)c(CC)c1NC(=O)N(Cc1ccc(Cl)cc1)c1ccc(N(C)C)cc1` [compound 127, 3-(3-amino-5-chloro-2,6-diethyl-phenyl)-1-(4-chloro-benzyl)-1-(4-dimethylamino-phenyl)-urea], the 50% inhibitory concentration (IC50) is 200 to 5000 nM. Same read-out and setting: for `CCc1ccc(N(C(=O)Nc2c(CC)c(N)cc(Cl)c2CC)C2CCc3cc(Cl)ccc32)cc1` (stereo not drawn) [compound 104, 3-(3-amino-5-chloro-2,6-diethyl-phenyl)-1-(5-chloro-indane-1-yl)-1-(4-ethyl-phenyl)-urea] the value was 60 to 200 nM. Take `CCc1c(Cl)cc(NCC(=O)N(C)C)c(CC)c1NC(=O)N(Cc1ccc(OC)cc1)c1ccc(C(C)C)cc1` [compound 37, 2-{5-chloro-2,4-diethyl-3-[3-(4-isopropyl-phenyl)-3-(4-methoxy-benzyl)-ureido]-phenylamino}-N,N-dimethyl-acetamide]: the IC50 was in the range of 200 to 5000 nM.

`COc1ccc(CN(C(=O)Nc2c(C)ccc3c2CCCN3)c2ccc(C(C)C)cc2)cc1` [compound 40, 1-(4-isopropyl-phenyl)-1-(4-methoxy-benzyl)-3-(6-methyl-1,2,3,4-tetrahydro-chinolin-5-yl)-urea]: the IC50 is greater than 5000 nM. The same measure, in the same setting: the same measure for `CCc1c(N)cc(Cl)c(CC)c1NC(=O)N(Cc1ccc(Cl)cc1)c1ccc(NC)c2ccccc12` [compound 139, 3-(3-amino-5-chloro-2,6-diethyl-phenyl)-1-(4-chloro-benzyl)-1-(4-methylamino-naphthalin-1-yl)-urea]: 200 to 5000 nM; for `Cc1ccc(CN(Cc2ccccc2)C(=O)c2ccccc2-n2cccc2)cc1` [Compound 8, N-Benzyl-N-(4-methyl-benzyl)-2-pyrrol-1-yl-benzamide, reference compound]: 200 to 5000 nM; for `CCc1c(N)cc(Cl)c(CC)c1NC(=O)N(c1ccc([S+](C)[O-])cc1)[C@@H](C)c1ccc(Cl)cc1` (stereo partly drawn) [compound 95, (S)-3-(3-amino-5-chloro-2,6-diethyl-phenyl)-1-[1-(4-chloro-phenyl)-ethyl]-1-(4-methanesulfinyl-phenyl)-urea]: 200 to 5000 nM. Take `CCc1ccc(N)c(CC)c1NC(=O)N(Cc1ccc(OC)nc1)c1ccc(C(C)C)cc1` [compound 48, 3-(3-amino-2,6-diethyl-phenyl)-1-(4-isopropyl-phenyl)-1-(6-methoxy-pyridin-3-ylmethyl)-urea]: the half-inhibitory concentration (IC50) fell in the range of 200 to 5000 nM.

Regarding `CCc1c(N)cc(Cl)c(CC)c1NC(=O)N(Cc1ccccc1)c1ccc(NC)cc1` [compound 129, 3-(3-amino-5-chloro-2,6-diethyl-phenyl)-1-benzyl-1-(4-methylamino-phenyl)-urea], the IC50 was 60 to 200 nM.

The experiment is the same for the next values; noted with them: ratio of enzyme release IC50 values.
In the case of `CCc1c(N)cc(Cl)c(CC)c1NC(=O)N(c1ccc(C(C)C)cc1)[C@@H](C)c1ccc(OC)cc1` [compound 66, (S)-3-(3-amino-5-chloro-2,6-diethyl-phenyl)-1-(4-isopropyl-phenyl)-1-[1-(4-methoxy-phenyl)-ethyl]-urea], the “Times higher antagonistic activity of S configuration than (R) configuration (56)” value was determined as 11.
